Reference: the OPERA property sets (Mansouri et al. 2018)

Row | Structure (SMILES) | boiling point [°C] | log10 vapour pressure (mmHg) | melting point [°C] | log10 Henry constant (atm·m³/mol) | log10 Koc (L/kg) | ready biodegradability | log10 biodegradation half-life (days)
1 | CCCSC | 95.6 | 1.71 | -113 | – | – | – | –
2 | Nc1ccc([N+](=O)[O-])cc1 | 332 | -5.49 | 146 | -8.9 | 1.88 | not readily biodegradable | –
3 | CN1CCN(C)CC1 | 131 | – | – | – | – | – | –
4 | CCOC(=O)C(C(=O)OCC)c1ccccc1 | – | – | 16.5 | – | – | – | –
5 | CCCCCCCCCCCCCCCCCCC | 330 | -4.31 | 32.1 | – | – | readily biodegradable | 1.26
6 | CC1=CC(=O)C(C(C)C)=CC1=O | 232 | – | 45.5 | – | – | – | –
7 | C[C@@H]([C@H](O)c1ccccc1)N(C)C | – | – | 87.5 | – | – | – | –
8 | CC(=O)O[C@]1(C(C)=O)CC[C@H]2[C@@H]3C=C(Cl)C4=CC(=O)C=C[C@]4(C)[C@H]3CC[C@@]21C | – | – | 168 | – | – | – | –
9 | C=C(C)C(OC(C)=O)OC(C)=O | 191 | – | – | – | – | – | –
10 | CNC.O=C(O)COc1ccc(Cl)cc1Cl | – | -9 | 86 | – | – | – | –
11 | N#CCc1ccc([N+](=O)[O-])cc1 | – | – | 117 | – | – | – | –
12 | Nc1ccc(F)cc1F | 170 | – | -7.5 | – | – | – | –
13 | Clc1cccc(Oc2ccc(Cl)c(Cl)c2)c1 | – | -3.91 | – | – | – | – | –
14 | COP(=S)(OC)Oc1cc(Cl)c(I)cc1Cl | – | -6.08 | 72.5 | – | – | – | –
15 | COc1cc2c(c(O)c1OC)C(C)N(C)CC2 (centres undefined) | – | – | 112 | – | – | – | –
16 | CCN1C(=O)CCC1=O | 236 | – | 26 | – | – | – | –
17 | CCCCCCCCCCCCCCCC[N+](C)(C)CC.[Br-] | – | – | 182 | – | – | – | –
18 | O=CC(Cl)Cl | 89.2 | 1.74 | – | – | – | – | –
19 | CS(=O)(=O)O.Cc1ccc(N(CC2=NCCN2)c2cccc(O)c2)cc1 | – | – | 181 | – | – | – | –
20 | CC(C)CCC#N | 156 | – | -51 | – | – | – | –
21 | NC(=S)c1c(Cl)cccc1Cl | – | -6 | 152 | – | 2.26 | – | –

Row | Structure (SMILES) | boiling point [°C] | log10 vapour pressure (mmHg) | melting point [°C] | log10 Henry constant (atm·m³/mol) | log10 Koc (L/kg) | ready biodegradability | log10 biodegradation half-life (days)
22 | c1ccc(Nc2cccc3ccccc23)cc1 | – | – | 62 | – | – | not readily biodegradable | –
23 | CCCOB(OCCC)OCCC | 180 | – | – | – | – | – | –
24 | COc1cc(C=CC(=O)O)cc(OC)c1OC | – | – | 127 | – | – | – | –
25 | CCCCCCCCCCCCCCCC(=O)OC[C@H](COP(=O)([O-])OCC[N+](C)(C)C)OC(=O)CCCCCCCCCCCCCCC | – | – | 234 | – | – | – | –
26 | O=C1CSC(=S)N1 | – | – | 170 | – | – | – | –
27 | CN1CN(C)CN(C)C1 | 163 | – | -27 | – | – | – | –
28 | CCCCCCCC/C=C\CCCCCCCCN | – | – | 246 | – | – | – | –
29 | CC1(C)CCC(=Cc2ccc(Cl)cc2)C1(O)Cn1cncn1 (centres undefined) | – | – | 140 | – | – | – | –
30 | C1=CCC2CC=CC2C1 (centres undefined) | – | – | – | – | – | not readily biodegradable | –
31 | Fc1ccccc1-c1ccccc1 | 248 | – | 73.5 | – | – | – | –
32 | FC(F)(Cl)C(Cl)Cl | 71.9 | – | – | – | – | – | –
33 | Oc1c(Br)c(Br)c(Br)c(Br)c1Br | – | – | 230 | – | – | not readily biodegradable | –
34 | C=C1CC(=O)O1 | 126 | 1.03 | -6.5 | – | – | readily biodegradable | –
35 | O=C(O)COc1ccc(Cl)cc1CO | – | -6.18 | 141 | – | – | – | –
36 | CCCC#CCCC | 132 | 0.985 | -101 | – | – | – | –
37 | CCC(O)C(C)O (centres undefined) | 188 | – | – | – | – | – | –
38 | CCC(C(=O)NC(=O)NC(C)=O)c1ccccc1 (centres undefined) | – | – | 100 | – | – | – | –
39 | Clc1ccc(-c2cccc(Cl)c2Cl)c(Cl)c1 | – | – | – | -3.85 | – | – | –
40 | CC(=O)C=Cc1ccco1 | – | – | 39.5 | – | – | – | –
41 | CC(C)OC(=O)Cl | 105 | 1.57 | – | – | – | not readily biodegradable | –
42 | COc1cc2c3c(c4ccc(OC)c(OC)c4c2cc1OC)CN1CCC[C@H]1C3 | – | – | 220 | – | – | – | –

Row | Structure (SMILES) | boiling point [°C] | log10 vapour pressure (mmHg) | melting point [°C] | log10 Henry constant (atm·m³/mol) | log10 Koc (L/kg) | ready biodegradability | log10 biodegradation half-life (days)
43 | CC1=CC=CC1 | 72.8 | 2.09 | – | – | – | – | –
44 | COc1ccccc1OCC(O)CO (centres undefined) | – | – | 78.5 | – | – | – | –
45 | C=CCCCCCCCCO | 236 | – | – | – | – | – | –
46 | CCCCNCC | 108 | – | -78 | – | – | readily biodegradable | –
47 | NS(=O)(=O)c1ccc(S(=O)(=O)CCCO)c(F)c1 | – | – | 130 | – | – | – | –
48 | c1ccc2oc(-c3ccc(-c4nc5ccccc5o4)s3)nc2c1 | – | – | 219 | – | – | – | –
49 | CCc1ccnc(C)c1 | 179 | – | – | – | – | – | –
50 | COC(=O)c1ccccc1N | 256 | -1.57 | 24.5 | – | – | – | –
51 | O=[N+]([O-])c1ccc(S(=O)(=O)O)c([N+](=O)[O-])c1 | – | – | 108 | – | – | – | –
52 | CC(C)(C)c1cc(C(=O)O)c(O)c(C(C)(C)C)c1 | – | – | – | – | – | not readily biodegradable | –
53 | CC(C(N)=O)n1nc2ccccc2n1 (centres undefined) | – | – | 170 | – | – | – | –
54 | CCCCCCN | 133 | 0.954 | -22.9 | -4.57 | – | readily biodegradable | –
55 | C1CSCCS1 | 200 | -0.0969 | 112 | – | – | – | –
56 | CCCC=C(C=O)CC | 195 | 0.107 | – | – | – | readily biodegradable | –
57 | C#CCCC(C)=O | 149 | – | – | – | – | – | –
58 | CN(C(=O)C(Cl)Cl)c1ccc(O)cc1 | – | – | 175 | – | – | – | –
59 | ClC1(Cl)CCCCC1 | 171 | – | -47 | – | – | – | –
60 | COc1cccc([N+](=O)[O-])c1 | 258 | – | 38.5 | – | – | not readily biodegradable | –
61 | CCCOP(=O)(OCCC)Oc1ccc(SC)cc1 | – | -6.05 | – | – | – | – | –
62 | CC(C)C(=O)O | 154 | 0.258 | -46 | -6.05 | – | readily biodegradable | –
